How the values were obtained:
leading ovarian follicle = experiment: Clinical trial of a single oral 30 mg dose on the outcome of the leading ovarian follicle before LH surge; format: in vivo, human; details: follicle 14-16 mm
Experimental: The results from the clinical trial described in Example 2 were confirmed by a second clinical trial designed to evaluate the effect of a single oral dosage of 30 mg ulipristal acetate on the outcome of the leading ovarian follicle before LH surge, when the follicle was 14-16 mm in diameter. 31 women satisfying all the exclusion/inclusion criteria were enrolled. After the inclusion visit, the women entered the study and underwent ultrasound monitoring starting from Day 5 of their menstrual cycle until the lead follicle reached a diameter of 14-16 mm. At this time, the women received one single dosage of 30 mg ulipristal acetate orally. The women were then monitored daily by ultrasound and hormonal assays until the end of the 21 days treatment period or until ovulation occurred or until the mucus score reached 4 or less at 2 consecutive visits, whichever came first. After which point they were seen twice a week until the end of the study.

women [1] = details: single dose of 30 mg within 72 hours or 120 hours after the intercourse; cited from earlier work
women [2] = experiment: Open-label trial of repeated ulipristal acetate 30 mg oral tablet, once weekly (Q7D) or every 5 days (Q5D) for 8 weeks: ovulation; format: in vivo, human
Experimental: In an open-label designed trial, 12 women received once weekly (Q7D) treatment with ulipristal acetate (30 mg oral tablet) for eight consecutive weeks starting on 7 days ±1 day after the onset of menses in the first cycle; and 11 women received ulipristal acetate 30 mg every 5 days (Q5D) for 8 weeks. […] The first ovulation occurred after a mean of 3.4 and 6.5 doses, and a mean of 17 and 26 days after start of treatment, in the Q7D and Q5D treatment arms, respectively.
Whenulipristal acetate was given during the follicular phase before the onset of the LH surge, ovulation occurred between 6 and 9 days of the last treatment intake in the majority of women.

In the case of CC(=O)O[C@]1(C(C)=O)CC[C@H]2[C@@H]3CCC4=CC(=O)CCC4=C3[C@@H](c3ccc(N(C)C)cc3)C[C@@]21C [ulipristal acetate, 17α-acetoxy-11β-[4-N, N-dimethylamino-phenyl)-19-norpregna-4,9-diene-3,20-dione], the “mean duration for the ovulation to occur” value (leading ovarian follicle) is reported as 7 days, the “median duration for the ovulation to occur” value (leading ovarian follicle) is reported as 6 days and the “Outcome of the leading follicle: Atresia, number of women” value (leading ovarian follicle; 31 women) is reported as 0. For the same molecule, the “Outcome of the leading follicle: LUF, number of women” value (leading ovarian follicle; 31 women) was 2, the “Outcome of the leading follicle: Luteal phase insufficiency, number of women” value (leading ovarian follicle; 31 women) was 1 and the “Outcome of the leading follicle: Ovulation, number of women” value (leading ovarian follicle; 31 women) was 27. For the same molecule, the “Outcome of the leading follicle: Persistent Follicle, number of women” value (leading ovarian follicle; 31 women) was 1, the “avoidance of unwanted pregnancy (emergency contraception)” value (women [1]) was “safe and effective” and the “mean time to first ovulation after start of treatment” value (women [2]; Q5D arm, 30 mg every 5 days for 8 weeks) was 26 days. For the same molecule, the “mean number of doses until first ovulation” value (women [2]; Q5D arm, 30 mg every 5 days for 8 weeks, 11 women) was 6.5 doses, the “inhibition of ovulation throughout the duration of treatment” value (women [2]; Q7D and Q5D regimens, majority of subjects) was “Neither regimen inhibited ovulation throughout the duration of treatment in a majority of subjects” and the “mean time to first ovulation after start of treatment” value (women [2]; Q7D arm, 30 mg oral tablet once weekly for 8 weeks) was 17 days. For the same molecule, the “mean number of doses until first ovulation” value (women [2]; Q7D arm, 30 mg oral tablet once weekly for 8 weeks, 12 women) was 3.4 doses, the “parameters of the luteal phase (duration, progesterone levels)” value (women [2]; after exposure to 30 mg) was “remain within the normal range” and the “fertilizability of the oocyte” value (women [2]; despite lengthened follicular phase and delay of LH surge, normal pregnancies after 30 mg exposure in emergency contraception trials) was “the oocyte remains fertilizable”.

Reference: US9522154B2, “Method for scheduling ovulation” (LABORATOIRE HRA-PHARMA, priority 2013, dated 2016)
